Experiments:
in vivo [1] = details: mouse
Description: Clearance in wild type mouse

in vivo [2] = details: mouse, po
Description: Oral bioavailability in wild type mouse

in vivo [3] = details: mouse; remark: listed apart in the source
Description: Half life in wild type mouse

clearance (in vivo [1]): 25 mL/min/kg
bioavailability (in vivo [2]): 56%
half-life (in vivo [3]): 4.1 h
Structure (SMILES): Cc1cc(C#N)cc2nc(-c3ccc(NC(=O)CN4CCN(c5ccc(C(F)(F)F)cc5)CC4)cc3)oc12

Source: ChEMBL document CHEMBL1641416, “2-Arylbenzoxazoles as CETP inhibitors: raising HDL-C in cynoCETP transgenic mice” (Bioorg Med Chem Lett, 2011)
